Laboratory results published in patent US7253281B2, “Anti-obesity 1,2,3,4,10,10a-hexahydropyrazino[1,2-a]indoles” (Hoffmann-La Roche Inc., priority 2000, dated 2007).
Values belong to the molecule of their own block, whether it stands above or below them.

Key:
[1] = biological target: T1, 5-HT2C receptors in a CHO cell line (Homo sapiens, UniProt P28335); assay: Binding to 5-HT2C receptor, [3H]-5-HT, Method (a); settings: read-out: Ki (2C)
T1 construct: expressed in transfected cells; host or cells: CHO cell line
T1 sequence (P28335 33-458): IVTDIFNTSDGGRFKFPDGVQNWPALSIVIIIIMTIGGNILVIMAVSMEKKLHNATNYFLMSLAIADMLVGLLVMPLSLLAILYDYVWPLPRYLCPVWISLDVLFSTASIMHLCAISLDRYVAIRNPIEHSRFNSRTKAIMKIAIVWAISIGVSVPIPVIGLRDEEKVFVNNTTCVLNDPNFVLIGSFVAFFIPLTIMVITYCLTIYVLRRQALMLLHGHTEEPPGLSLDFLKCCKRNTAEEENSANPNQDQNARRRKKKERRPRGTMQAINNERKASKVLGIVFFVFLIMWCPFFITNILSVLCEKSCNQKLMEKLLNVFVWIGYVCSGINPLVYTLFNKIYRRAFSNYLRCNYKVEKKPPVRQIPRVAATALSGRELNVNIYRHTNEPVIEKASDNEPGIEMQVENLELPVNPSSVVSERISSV
Protocol: (§1) The binding of compounds of formula (I) to serotonin receptors was determined in vitro by standard methods. The preparations were investigated in accordance with the assays given hereinafter.
Method (a): For the binding to the 5-HT2C receptor the 5-HT2C receptors were radiolabeled with [^3H]-5-HT. The affinity of the compounds for 5-HT2C receptors in a CHO cell line was determined according to the procedure of D. Hoyer, G. Engel and H. O. Kalkman, European J. Pharmacol., 1985, 118, 13–23.

[2] = biological target: T2, human 5-HT2B receptors in a CHO cell line (Homo sapiens, UniProt P41595); assay: Binding to 5-HT2B receptor, [3H]-5-HT, Method (b); settings: read-out: Ki (2B)
T2 construct: expressed in transfected cells; host or cells: CHO cell line
T2 sequence (P41595 whole entry): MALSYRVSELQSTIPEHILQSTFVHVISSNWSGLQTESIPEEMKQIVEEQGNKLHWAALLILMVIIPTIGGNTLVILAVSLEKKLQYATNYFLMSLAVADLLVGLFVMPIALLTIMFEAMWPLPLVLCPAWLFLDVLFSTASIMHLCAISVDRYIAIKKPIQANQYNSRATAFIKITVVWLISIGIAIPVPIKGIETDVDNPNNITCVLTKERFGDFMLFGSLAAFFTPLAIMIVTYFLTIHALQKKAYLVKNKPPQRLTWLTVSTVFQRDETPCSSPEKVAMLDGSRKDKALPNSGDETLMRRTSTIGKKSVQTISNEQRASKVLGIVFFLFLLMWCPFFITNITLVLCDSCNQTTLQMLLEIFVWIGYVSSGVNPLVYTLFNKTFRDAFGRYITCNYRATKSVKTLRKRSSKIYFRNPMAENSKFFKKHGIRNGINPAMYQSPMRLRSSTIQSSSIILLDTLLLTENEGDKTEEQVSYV
Protocol: as §1
Method (b): For the binding to the 5-HT2B receptor the 5-HT2B receptors were radiolabeled with [^3H]-5-HT. The affinity of the compounds for human 5-HT2B receptors in a CHO cell line was determined according to the procedure of K. Schmuck, C. Ullmer, P. Engels and H. Lubbert, FEBS Lett., 1994, 342, 85–90.

[3] = biological target: T3, 5-HT2A receptors in a CHO cell line (Homo sapiens, UniProt P28223); assay: Binding to 5-HT2A receptor, [125I]-DOI, Method (c); settings: read-out: Ki (2A)
T3 construct: expressed in transfected cells; host or cells: CHO cell line
T3 sequence (P28223 whole entry): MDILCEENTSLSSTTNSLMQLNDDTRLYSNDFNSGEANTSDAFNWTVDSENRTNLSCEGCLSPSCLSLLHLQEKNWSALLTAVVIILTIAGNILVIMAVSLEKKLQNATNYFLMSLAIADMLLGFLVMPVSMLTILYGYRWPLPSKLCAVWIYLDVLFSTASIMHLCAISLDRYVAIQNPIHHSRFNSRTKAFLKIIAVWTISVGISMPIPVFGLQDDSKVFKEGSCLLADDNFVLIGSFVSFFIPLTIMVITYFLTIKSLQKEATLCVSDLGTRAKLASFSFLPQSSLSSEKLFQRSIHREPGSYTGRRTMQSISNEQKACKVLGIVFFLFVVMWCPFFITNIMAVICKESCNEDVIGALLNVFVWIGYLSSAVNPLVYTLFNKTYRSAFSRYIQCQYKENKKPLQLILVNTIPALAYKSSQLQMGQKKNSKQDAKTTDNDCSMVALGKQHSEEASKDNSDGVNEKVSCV
Protocol: as §1
Method (c): For the binding to the 5-HT2A receptor the 5-HT2A receptors were radiolabeled with [^125I]-DOI. The affinity of the compounds for 5-HT2A receptors in a CHO cell line was determined according to the procedure of D. J. McKenna and S. J. Peroutka, J. Neurosci., 1989, 9, 3482–90.

[4] = biological target: T4, human 5-HT2C receptor (CHO cells) (Homo sapiens, UniProt P28335); assay: Functional activity, FLIPR calcium assay, h5-HT2C; assay type: cell-based
T4 construct: expressed in transfected cells; host or cells: CHO cells
T4 sequence (P28335 33-458): T1 sequence (P28335 33-458)
Protocol: (§2) The functional activity of compounds of formula (I) was assayed using a Fluorimetric Imaging Plate reader (FLIPR). CHO cells expressing the human 5-HT2C or human 5-HT2A receptors were counted and plated into standard 96 well microtitre plates on the day before testing to give a confluent monolayer. The cells were then dye loaded with the calcium sensitive dye, Fluo-3-AM. Unincorporated dye was removed using an automated cell washer to leave a total volume of 100 μL/well of assay buffer (Hanks balanced salt solution containing 20 mM Hepes and 2.5 mM probenecid). The drug (dissolved in 50 μL of the assay buffer) was added at a rate of 70 μL/sec to each well of the FLIPR 96 well plate during fluorescence measurements. The measurements were taken at 1 sec intervals and the maximum fluorescent signal was measured (approx 10–15 secs after drug addition) and compared with the response produced by 10 μM 5-HT (defined as 100%) to which it was expressed as a percentage response (relative efficacy). Dose response curves were constructed using Graphpad Prism (Graph Software Inc.).

[5] = biological target: T5, human 5-HT2A receptor (CHO cells) (Homo sapiens, UniProt P28223); assay: Functional activity, FLIPR calcium assay, h5-HT2A; assay type: cell-based
T5 construct: expressed in transfected cells; host or cells: CHO cells
T5 sequence (P28223 whole entry): as above
Protocol: as §2

[6] = biological target: h5-HT2B (Homo sapiens, UniProt P41595); assay: Functional activity, FLIPR calcium assay, h5-HT2B; assay type: cell-based
h5-HT2B, sequence (P41595 whole entry): as the sequence (P41595 whole entry) above

[7] = relative to response of 10 μM 5-HT (100%)

SMILES: C[C@@H]1CNC[C@H]2Cc3ccc(C(F)(F)F)cc3N21.Cl
melting point: 221 to 224 °C

SMILES: C[C@@H]1CNC[C@@H]2Cc3ccc(C(F)(F)F)cc3N21.Cl
melting point: 245 to 250 °C (dec.)

SMILES: Cc1cc2c(cc1C(F)(F)F)N1[C@H](CNC[C@H]1C)C2.Cl
melting point: 200 to 205 °C

SMILES: CC(=O)Nc1ccc2c(c1)N1[C@@H](CNC[C@H]1C)C2.Cl
melting point: > 250 °C (dec.)

SMILES: CCCCNC(=O)c1ccc2c(c1)N1[C@@H](CNC[C@H]1C)C2.Cl
melting point: 125 °C (dec.)

SMILES: C[C@@H]1CNC[C@H]2Cc3ccc(Cl)cc3N21 [Example 8, (4R,10aR)-7-Chloro-4-methyl-1,2,3,4,10,10a-hexahydro-pyrazino[1,2-a]indole]
EC50 ([4]; FLIPR, CHO cells): 0.0004 µM
h5-HT2c Relative Efficacy (%) [4, 7]: 97%
EC50 ([5]; FLIPR, CHO cells): 0.019 µM
h5-HT2A Relative Efficacy (%) [5, 7]: 60%
EC50 ([6]; FLIPR): 0.0034 µM
h5-HT2B Relative Efficacy (%) [6, 7]: 62%

Results, then the molecule that gave them:

melting point: 66 °C (dec.)
SMILES: C[C@@H]1CNC[C@H]2Cc3ccc(CO)cc3N21.Cl

Ki [1]: 0.026 µM
Ki [2]: 0.11 µM
Ki [3]: 0.23 µM
SMILES: O=C1OCCN1CN1CCN2c3cccc(Br)c3C[C@@H]2C1 [Example 3, (10aR)-3-(9-Bromo-3,4,10,10a-tetrahydro-1H-pyrazino[1,2-a]indol-2-ylmethyl)-oxazolidin-2-one]
